“And” between values parts separate entries of the source, which are not always exact repeats. Equal values may be shown once. Toxic doses and inconclusive results are not listed.
Test system: P388 leukemia ip, CD2F1 mice, survival T/C
Test: NCI In Vivo Anticancer Drug Screen. Data for tumor model P388 Leukemia (intraperitoneal) in CD2F1 (CDF1) mice
Details: endpoint: median survival time, higher = longer survival
How it was run: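 Mice carrying the transplanted tumor received test compound or vehicle. Survival was recorded in each group, and the value is the treated-group measurement divided by that of the vehicle-treated control group.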

[1] = dose: 50.0 mg/kg/injection, schedule: Q01DX005 (ip), vehicle: Klucel (hydroxypropylcellulose) (HPC)
[2] = dose: 100.0 mg/kg/injection, schedule: Q01DX005 (ip), vehicle: Klucel (hydroxypropylcellulose) (HPC)
[3] = dose: 200.0 mg/kg/injection, schedule: Q01DX005 (ip), vehicle: Klucel (hydroxypropylcellulose) (HPC)
[4] = dose: 60.0 mg/kg/injection, schedule: Q01DX005 (ip), vehicle: saline with Tween-80
[5] = dose: 120.0 mg/kg/injection, schedule: Q01DX005 (ip), vehicle: saline with Tween-80
[6] = dose: 240.0 mg/kg/injection, schedule: Q01DX005 (ip), vehicle: saline with Tween-80
[7] = dose: 50.0 mg/kg/injection, schedule: Q01DX009 (ip), vehicle: saline with Tween-80
[8] = dose: 100.0 mg/kg/injection, schedule: Q01DX009 (ip), vehicle: saline with Tween-80
[9] = dose: 200.0 mg/kg/injection, schedule: Q01DX009 (ip), vehicle: saline with Tween-80
[10] = dose: 50.0 mg/kg/injection, schedule: Q01DX005 (ip), vehicle: saline with Tween-80
[11] = dose: 100.0 mg/kg/injection, schedule: Q01DX005 (ip), vehicle: saline with Tween-80
[12] = dose: 200.0 mg/kg/injection, schedule: Q01DX005 (ip), vehicle: saline with Tween-80
[13] = dose: 100.0 mg/kg/injection, schedule: Q01DX009 (ip), vehicle: saline
[14] = dose: 200.0 mg/kg/injection, schedule: Q01DX009 (ip), vehicle: saline
[15] = dose: 25.0 mg/kg/injection, schedule: Q01DX009 (ip), vehicle: saline

SMILES: CCCC(=O)Oc1ccc[nH]c1=O
- T/C (dose: 3.13 mg/kg/injection, schedule: Q01DX009 (ip), vehicle: distilled water + Tween-80): 100 % of control
- T/C (dose: 3.13 mg/kg/injection, schedule: Q01DX009 (ip), vehicle: water): 92 % of control
- T/C (dose: 6.25 mg/kg/injection, schedule: Q01DX009 (ip), vehicle: distilled water + Tween-80): 107 % of control
- T/C (dose: 6.25 mg/kg/injection, schedule: Q01DX009 (ip), vehicle: water): 92 % of control
- T/C (dose: 12.5 mg/kg/injection, schedule: Q01DX009 (ip), vehicle: distilled water + Tween-80): 106 % of control
- T/C (dose: 12.5 mg/kg/injection, schedule: Q01DX009 (ip), vehicle: water): 92 % of control
- T/C (dose: 25.0 mg/kg/injection, schedule: Q01DX009 (ip), vehicle: distilled water + Tween-80): 100 % of control
- T/C (dose: 25.0 mg/kg/injection, schedule: Q01DX009 (ip), vehicle: water): 99 % of control and 107 % of control
- T/C (dose: 50.0 mg/kg/injection, schedule: Q01DX009 (ip), vehicle: distilled water + Tween-80): 109 % of control
- T/C (dose: 50.0 mg/kg/injection, schedule: Q01DX009 (ip), vehicle: water): 114 % of control
- T/C (dose: 100.0 mg/kg/injection, schedule: Q01DX009 (ip), vehicle: water): 114 % of control
- T/C (dose: 200.0 mg/kg/injection, schedule: Q01DX009 (ip), vehicle: water): 115 % of control

SMILES: O=C1/C(=C/N2CCOCC2)CCc2nc(-c3ccccc3)sc21
- T/C [1]: 109 % of control
- T/C [2]: 100 % of control
- T/C [3]: 100 % of control

SMILES: COc1cc(C2=[N+](C)CCc3cc4c(cc32)OCO4)cc(OC)c1OC
- T/C [1]: 99 % of control
- T/C [2]: 103 % of control

SMILES: CC(C)=CCC/C(C)=C\CN(C)C
- T/C (dose: 6.25 mg/kg/injection, schedule: Q04DX002 (ip), vehicle: saline with Tween-80): 100 % of control
- T/C (dose: 12.5 mg/kg/injection, schedule: Q04DX002 (ip), vehicle: saline with Tween-80): 103 % of control
- T/C (dose: 25.0 mg/kg/injection, schedule: Q04DX002 (ip), vehicle: saline with Tween-80): 94 % of control

SMILES: CCC1=C[C@H]2CN(CCc3c([nH]c4ccccc34)[C@@](C(=O)OC)(c3cc4c(cc3OC)N(C)[C@H]3C(C(=O)NC)=C[C@]5(CC)C=CCN6CC[C@]43[C@@H]65)C2)C1
- T/C (dose: 1.0 mg/kg/injection, schedule: Q01DX001 (ip), vehicle: other): 101 % of control
- T/C (dose: 2.0 mg/kg/injection, schedule: Q01DX001 (ip), vehicle: other): 101 % of control
- T/C (dose: 4.0 mg/kg/injection, schedule: Q01DX001 (ip), vehicle: other): 107 % of control
- T/C (dose: 8.0 mg/kg/injection, schedule: Q01DX001 (ip), vehicle: other): 108 % of control
- T/C (dose: 16.0 mg/kg/injection, schedule: Q01DX001 (ip), vehicle: other): 114 % of control
- T/C (dose: 32.0 mg/kg/injection, schedule: Q01DX001 (ip), vehicle: other): 112 % of control and 123 % of control
- T/C (dose: 64.0 mg/kg/injection, schedule: Q01DX001 (ip), vehicle: other): 119 % of control

SMILES: CC1=C(C(N)=O)C(c2ccccc2Cl)NC(=S)N1 (stereo unspecified)
- T/C (dose: 60.0 mg/kg/injection, schedule: Q01DX005 (ip), vehicle: Klucel (hydroxypropylcellulose) (HPC)): 117 % of control
- T/C (dose: 120.0 mg/kg/injection, schedule: Q01DX005 (ip), vehicle: Klucel (hydroxypropylcellulose) (HPC)): 98 % of control
- T/C (dose: 240.0 mg/kg/injection, schedule: Q01DX005 (ip), vehicle: Klucel (hydroxypropylcellulose) (HPC)): 99 % of control

SMILES: O=C1NC(O)c2cc(Br)ccc2O1 (stereo unspecified)
- T/C [1]: 100 % of control
- T/C [2]: 104 % of control
- T/C [3]: 106 % of control

SMILES: [N-]=[N+]=Nc1ccnc2cc(Cl)ccc12
- T/C [4]: 108 % of control
- T/C [5]: 100 % of control
- T/C [6]: 104 % of control

SMILES: C=C(C)CCCCOCOCCOC
- T/C [4]: 99 % of control
- T/C [5]: 99 % of control
- T/C [6]: 97 % of control

SMILES: Cc1ccc(S(=O)(=O)Nc2ccccc2OCCN(CCOc2ccccc2NS(=O)(=O)c2ccc(C)cc2)S(=O)(=O)c2ccc(C)cc2)cc1
- T/C [7]: 96 % of control
- T/C [8]: 99 % of control
- T/C [9]: 93 % of control

SMILES: O=C(O)CCCC1CCCCC1.[Mn]
- T/C [10]: 116 % of control
- T/C [11]: 108 % of control
- T/C [12]: 99 % of control

SMILES: [O-]c1on[n+](-c2ccccc2)c1CN1CCOCC1
- T/C [1]: 107 % of control
- T/C [2]: 111 % of control
- T/C [3]: 102 % of control

SMILES: CNC(=O)c1ccccc1CC1(O)CCCc2ccccc21 (stereo unspecified)
- T/C [7]: 101 % of control
- T/C [8]: 96 % of control
- T/C [9]: 96 % of control

SMILES: Nc1ccn([C@@H](C=O)O[C@@H](C=O)CO)c(=O)n1
- T/C (dose: 44.0 mg/kg/injection, schedule: Q04DX003 (ip), vehicle: saline): 112 % of control
- T/C (dose: 66.0 mg/kg/injection, schedule: Q04DX003 (ip), vehicle: saline): 120 % of control
- T/C [13]: 150 % of control
- T/C [14]: 180 % of control

SMILES: N/N=C1\C(Cl)=C(Cl)c2ccccc21
- T/C [1]: 90 % of control
- T/C [2]: 93 % of control
- T/C [3]: 90 % of control

SMILES: Oc1ccc(C(O)C2CCCCN2)cc1O (stereo unspecified)
- T/C [15]: 99 % of control
- T/C (dose: 50.0 mg/kg/injection, schedule: Q01DX009 (ip), vehicle: saline): 108 % of control
- T/C [13]: 103 % of control
- T/C [14]: 108 % of control

SMILES: CCC(c1ccc(OCC(=O)N2CC2)cc1)C(CC)c1ccc(OCC(=O)N2CC2)cc1 (stereo unspecified)
- T/C (dose: 100.0 mg/kg/injection, schedule: Q04DX003 (ip), vehicle: suspension in saline): 99 % of control
- T/C (dose: 200.0 mg/kg/injection, schedule: Q04DX003 (ip), vehicle: suspension in saline): 98 % of control
- T/C (dose: 400.0 mg/kg/injection, schedule: Q04DX003 (ip), vehicle: suspension in saline): 100 % of control

SMILES: CN(C)c1c(-c2ccc(Cl)cc2)cc(-c2ccccc2)[nH]c1=O
- T/C (dose: 1.56 mg/kg/injection, schedule: Q01DX009 (ip), vehicle: Klucel (hydroxypropylcellulose) (HPC)): 101 % of control
- T/C (dose: 3.13 mg/kg/injection, schedule: Q01DX009 (ip), vehicle: Klucel (hydroxypropylcellulose) (HPC)): 101 % of control
- T/C (dose: 6.25 mg/kg/injection, schedule: Q01DX009 (ip), vehicle: Klucel (hydroxypropylcellulose) (HPC)): 100 % of control
- T/C (dose: 12.5 mg/kg/injection, schedule: Q01DX009 (ip), vehicle: Klucel (hydroxypropylcellulose) (HPC)): 99 % of control and 89 % of control
- T/C (dose: 50.0 mg/kg/injection, schedule: Q01DX009 (ip), vehicle: Klucel (hydroxypropylcellulose) (HPC)): 101 % of control
- T/C (dose: 100.0 mg/kg/injection, schedule: Q01DX009 (ip), vehicle: Klucel (hydroxypropylcellulose) (HPC)): 106 % of control

SMILES: COC(=O)CCC(=O)Nc1c(C)cccc1C(C)C
- T/C [4]: 105 % of control
- T/C [5]: 99 % of control
- T/C [6]: 99 % of control

SMILES: CC(C)(C)c1cc(-c2c3nc(c(-c4cc(C(C)(C)C)c(O)c(C(C)(C)C)c4)c4ccc([nH]4)c(-c4cc(C(C)(C)C)c(O)c(C(C)(C)C)c4)c4nc(c(-c5cc(C(C)(C)C)c(O)c(C(C)(C)C)c5)c5ccc2[nH]5)C=C4)C=C3)cc(C(C)(C)C)c1O
- T/C [4]: 90 % of control
- T/C [5]: 88 % of control
- T/C [6]: 88 % of control

SMILES: O=C1C2Nc3ccccc3N=C2OC1c1cccc([N+](=O)[O-])c1 (stereo unspecified)
- T/C (dose: 60.0 mg/kg/injection, schedule: Q01DX005 (ip), vehicle: Klucel + Tween-80): 107 % of control
- T/C (dose: 120.0 mg/kg/injection, schedule: Q01DX005 (ip), vehicle: Klucel + Tween-80): 97 % of control
- T/C (dose: 240.0 mg/kg/injection, schedule: Q01DX005 (ip), vehicle: Klucel + Tween-80): 91 % of control

SMILES: NC(=S)N/N=C\C(CC(O)CO)=N\NC(N)=S (stereo unspecified)
- T/C [10]: 101 % of control
- T/C [11]: 101 % of control
- T/C [12]: 93 % of control

SMILES: Cc1ccc(N=S(C)(C)=O)cc1
- T/C (dose: 100.0 mg/kg/injection, schedule: Q01DX001 (ip), vehicle: saline with Tween-80): 103 % of control
- T/C (dose: 200.0 mg/kg/injection, schedule: Q01DX001 (ip), vehicle: saline with Tween-80): 104 % of control
- T/C (dose: 400.0 mg/kg/injection, schedule: Q01DX001 (ip), vehicle: saline with Tween-80): 102 % of control

SMILES: C=C[Si](C)(C)c1ccc([Si](C)(C)C=C)cc1
- T/C (dose: 6.25 mg/kg/injection, schedule: Q01DX009 (ip), vehicle: saline): 107 % of control
- T/C (dose: 12.5 mg/kg/injection, schedule: Q01DX009 (ip), vehicle: saline): 105 % of control
- T/C [15]: 117 % of control
- T/C [13]: 97 % of control
- T/C [14]: 99 % of control
